These are literature values, as cited in PMC6376154 (International Journal for Parasitology: Drugs and Drug …, 2019).

pEC50: −log10 of the molar value. Read-outs that look alike come from different tables or passages of the source.

The test system of this series is P. falciparum 3D7 asexual blood stage. The conditions noted are these: cited from earlier work.
Where [1] appears, read: ChEMBL-NTD value per source (GNF, GSK, StJude), several values in a cell follow the order of the sources, read-out: CHEMBL EC50.
Where [2] appears, read: MMV Malaria Box sheet, ref MMV data sheets.
The mark [3] stands for this setting: MMV Malaria Box sheet, ref MMV data sheets, read-out: EC50_nM.
Setting [4] is: source GSK, ref ChEMBL_NTD, read-out: CHEMBL EC50.
The mark [5] stands for this setting: MMV Malaria Box data sheet (supplement mmc2.xls), ref MMV data sheet.
Where [6] appears, read: value(s) per source (GSK, GNF, StJude), separated by semicolon, ref ChEMBL-NTD, read-out: CHEMBL EC50.
The mark [7] stands for this setting: MMV Malaria Box data sheet (supplement mmc2.xls), ref MMV data sheet, read-out: EC50_nM.
Setting [8] is: source StJude, ref ChEMBL_NTD, read-out: CHEMBL EC50.
[9] abbreviates: MMV Malaria Box data sheet, ref MMV data sheets.
Setting [10] is: MMV Malaria Box data sheet, ref MMV data sheets, read-out: EC50_nM.
Where [11] appears, read: source GNF, ref ChEMBL_NTD, read-out: CHEMBL EC50.

For the compound `COc1ccc(CNC(=O)c2cc3c(=O)n4ccccc4nc3n(CCc3ccccc3)c2=N)cc1` [MMV665881], under setting [1], the pEC50 was 6.48.
Consider `OC(CNC1CCCCC1)Cn1c2ccc(I)cc2c2cc(I)ccc21` (stereo not drawn) [MMV665882], for which, under setting [1], the pEC50 was 6.47.
`O=C(Nc1cccc(-c2nc3ccccc3[nH]2)c1)c1cccc(NC(=O)c2ccco2)c1` [MMV665883]: the “percent_inh @ 5 uM” value under setting [2] was 95%. The pEC50 reads like this: under setting [3], 6.13; under setting [4], 6.44.
Regarding `CC(Oc1ccc(NC(=O)c2cccs2)cc1)C(=O)c1ccc(Cl)cc1` (stereo not drawn) [MMV665886], the pEC50 under setting [1] is 6.11.
With `O=C(Nc1ccccc1O)c1ccc(Oc2cccc(C(=O)Nc3ccccc3O)c2)cc1` [MMV665888], under setting [5], the “percent_inh @ 5 uM” value was 91%. For the same compound, the pEC50 under setting [6] is 6.10.
Take `COc1ccc(-c2nonc2NC(=O)c2cccc(C)c2)cc1OC` [MMV665890]: the “percent_inh @ 5 uM” value under setting [5] was 95%. In addition, under setting [6], the pEC50 is 6.09.
Consider `c1ccc(-c2ccc(-c3nc4ccccc4[nH]3)cc2)cc1` [MMV665891], for which the “percent_inh @ 5 uM” value under setting [5] is given as 52%. Further, the pEC50 runs as follows: under setting [7], 5.97; under setting [6], 6.09.
As for `CC(=O)c1sc(NC(=O)Nc2ccc(C)cc2C)nc1C` [MMV665894], the pEC50 under setting [1] was 6.04.
As for `COc1ccc2nc(N)nc(C)c2c1` [MMV665897], under setting [2], the “percent_inh @ 5 uM” value is listed as 63%. Besides, the pEC50 under setting [4] was 6.03.
Regarding `COc1cc(C(=O)Nc2ccc(-c3nc4ccccc4[nH]3)cc2)cc(OC)c1OC` [MMV665898], under setting [1], the pEC50 is 6.01.
Regarding `O=C(c1ccccc1F)N(Cc1ccc(Cl)cc1)c1ccccn1` [MMV665899], the “percent_inh @ 5 uM” value under setting [5] is reported as 59%. The pEC50 under setting [6] was 5.99.
As to `O=C(Nc1ccc(CN2CCOCC2)cc1)c1ccc(-c2ccc(Br)cc2)o1` [MMV665901], the “percent_inh @ 5 uM” value under setting [5] is 96%. The pEC50 is, setting by setting: under setting [7], 5.87; under setting [6], 5.95.
Turning to `N=c1n(CCN2CCCCC2)c2ccccc2n1CC(O)c1cccc(Br)c1` (stereo not drawn) [MMV665902], under setting [5], the “percent_inh @ 5 uM” value is 98%. The pEC50 runs as follows: under setting [7], 6.05; under setting [6], 5.94.
Take `COCCn1c(C)nc2ccccc2c1=O` [MMV665904]: under setting [2], the “percent_inh @ 5 uM” value was 59%. Also, under setting [4], the pEC50 is 5.84.
For the compound `Cc1ccc(-c2cc(C(=O)Nc3ccc(S(=O)(=O)N4CCCCC4)cc3)[nH]n2)c(O)c1` [MMV665906], the “percent_inh @ 5 uM” value under setting [5] is 94%. For the same compound, the pEC50 under setting [7] is 6.27 and the pEC50 under setting [6] is 5.75.
As for `COc1ccc(N2CCN(C(CNC(=O)CC(C)(C)C)c3ccc4c(c3)OCO4)CC2)cc1` (stereo not drawn) [MMV665908], the “percent_inh @ 5 uM” value under setting [2] is 95%. Under setting [8], the pEC50 was 5.37.
On to `O=C(Nc1nc(-c2ccccn2)cs1)c1ccccc1Br` [MMV665909], for which the “percent_inh @ 5 uM” value under setting [9] is recorded as 97%. Besides, the pEC50 runs as follows: under setting [10], 5.87; under setting [8], 5.34.
With `CCOc1ccc(-c2nc(NC(=O)c3cccc(S(C)(=O)=O)c3)sc2C)cc1` [MMV665913], under setting [5], the “percent_inh @ 5 uM” value is reported as 95%. In addition, the pEC50 under setting [6] is 4.82.
Take `COc1ccccc1N1CCN(C(CNS(=O)(=O)c2ccc(Cl)cc2)c2cccnc2)CC1` (stereo not drawn) [MMV665914]: the “percent_inh @ 5 uM” value under setting [5] is 93%. Besides, under setting [6], the pEC50 was 4.82.
For the compound `COc1ccc(-c2nc(NC(=O)CS(=O)(=O)c3ccc(F)cc3)sc2C)cc1` [MMV665915], the “percent_inh @ 5 uM” value under setting [9] was 97%. For the same compound, the pEC50 is, setting by setting: under setting [10], 6.35; under setting [11], 6.67; under setting [4], 6.61.
With `COc1ccccc1CNC(=O)CCn1c(=O)[nH]c2ccccc2c1=O` [MMV665916], under setting [9], the “percent_inh @ 5 uM” value is recorded as 64%. Moreover, the pEC50 reads like this: under setting [10], 7.14; under setting [11], 6.27.
`O=C(Nc1ccc(Cl)cc1)N1CCN(c2ccc3nncn3n2)CC1` [MMV665917]: the “percent_inh @ 5 uM” value under setting [9] is 62%. Further, the pEC50 under setting [11] is 5.69.
On to `O=C(CSc1ccc2nnc(-c3cccc(F)c3)n2n1)Nc1ccc2c(c1)OCO2` [MMV665918], for which the “percent_inh @ 5 uM” value under setting [5] is listed as 92%. The pEC50 under setting [6] was 5.68.
Regarding `N=c1c2ccccc2nnn1-c1cccc(C(F)(F)F)c1` [MMV665923], the pEC50 under setting [1] is 6.87.
On to `COc1ccc(C(=O)C2CC2c2ccc(Cl)cc2)cc1` (stereo not drawn) [MMV665924], for which, under setting [2], the “percent_inh @ 5 uM” value is recorded as 94%. Moreover, the pEC50 under setting [3] is 5.97 and the pEC50 under setting [11] is 6.66.
On to `O=C(CCl)NCCOc1ccc(Cl)cc1Cl` [MMV665927], for which the pEC50 under setting [1] is 6.27.
Take `CCC(C)NCC(O)(c1ccc(Cl)cc1)c1ccc(Cl)cc1` (stereo not drawn) [MMV665928]: the “percent_inh @ 5 uM” value under setting [9] was 98%. In addition, the pEC50 under setting [10] is 6.19, the pEC50 under setting [11] was 6.19 and the pEC50 under setting [4] was 6.07.
In the case of `CCCCNCC(O)(c1ccc(Cl)cc1)c1ccc(Cl)cc1` [MMV665929], the “percent_inh @ 5 uM” value under setting [5] is 97%. For the same compound, the pEC50 by setting is: under setting [7], 6.07; under setting [6], 6.14.
As for `O=C1c2ccccc2-c2nnc(-c3ccc(Br)cc3)cc21` [MMV665934], under setting [2], the “percent_inh @ 5 uM” value was 99%. Further, the pEC50 was 5.97 under setting [3] and 5.60 under setting [11].
Take `FC(F)(F)c1ccc(Nc2nnnc3ccccc23)cc1` [MMV665935]: the “percent_inh @ 5 uM” value under setting [5] was 77%.
`Cc1ccc(S(=O)(=O)c2c(COC(=O)c3cccc(C)c3)c(-c3ccccc3)nn2C)cc1` [MMV665936]: the “percent_inh @ 5 uM” value under setting [2] is reported as 95%. In addition, the pEC50 under setting [11] is 5.08.
With `O=C(Nc1ccsc1C(=O)NC1CCCCC1)c1ccc(F)cc1` [MMV665939], the “percent_inh @ 5 uM” value under setting [5] is 86%. Under setting [6], the pEC50 is 5.92.
In the case of `CCOc1ccc(C=Cc2nc(=O)c3ccccc3o2)cc1` [MMV665940], under setting [9], the “percent_inh @ 5 uM” value is on record as 95%. The pEC50 reads like this: under setting [10], 6.25; under setting [8], 6.73.
With `CN(C)c1ccc(C(O)(c2ccc(N(C)C)cc2)c2ccc(N(C)C)cc2)cc1` [MMV665941], under setting [9], the “percent_inh @ 5 uM” value is 96%. For the same compound, the pEC50 reads like this: under setting [10], 6.59; under setting [8], 6.21.
Turning to `Nc1ccc(-c2nc3cc(Cc4ccc5[nH]c(-c6ccc(N)cc6)nc5c4)ccc3[nH]2)cc1` [MMV665943], under setting [2], the “percent_inh @ 5 uM” value is on record as 100%. The pEC50 is 5.85 under setting [3], 6.61 under setting [11], 6.29 under setting [4] and 5.97 under setting [8].
For `COc1ccc(CN2CCN(Cc3ccccc3)CC2)c(O)c1` [MMV665944], the “percent_inh @ 5 uM” value under setting [2] was 96%. Moreover, the pEC50 is, setting by setting: under setting [3], 5.97; under setting [8], 5.96.
For `CC(C)=CCN1CCC(C(=O)Nc2ccc(-c3nc4ccccc4[nH]3)cc2)CC1` [MMV665946], the “percent_inh @ 5 uM” value under setting [5] is listed as 96%. Besides, the pEC50 under setting [7] is 5.94.
With `O=C(Nc1ccccc1O)c1ccc(-c2ccc(Cl)cc2Cl)o1` [MMV665948], the “percent_inh @ 5 uM” value under setting [5] was 97%. In addition, the pEC50 under setting [6] is 5.61.
In the case of `Oc1ccc(C(=C(Cl)Cl)c2ccc(O)cc2)cc1` [MMV665949], the “percent_inh @ 5 uM” value under setting [2] was 95%. Moreover, the pEC50 under setting [8] is 5.61.
Take `O=C(Nc1ccc(F)c(Cl)c1)Nc1ccc(Cl)c(Cl)c1` [MMV665953]: the “percent_inh @ 5 uM” value under setting [5] is given as 95%. The pEC50 is 5.69 under setting [7] and 5.27 under setting [6].
In the case of `O=C(NCC1Cc2cccc(-c3ccncc3)c2O1)c1csc2c1CCCC2` (stereo not drawn) [MMV665954], the “percent_inh @ 5 uM” value under setting [5] was 87%. In addition, the pEC50 was 5.76 under setting [7] and 5.06 under setting [6].
For the compound `CCN(CC)CCCNc1nc(-c2ccc(Cl)cc2)nc2ccccc12` [MMV665961], the “percent_inh @ 5 uM” value under setting [5] is listed as 92%. Moreover, the pEC50 under setting [6] is 4.82.
For the compound `COc1cccc(C(=O)NC(c2ccc(C)cc2)c2cc(Cl)c3cccnc3c2O)c1` (stereo not drawn) [MMV665969], under setting [2], the “percent_inh @ 5 uM” value was 97%. Also, the pEC50 reads like this: under setting [3], 6.41; under setting [8], 4.82.
As to `CCOC(=O)C1=C(C)N=c2sc(=Cc3cc(Cl)ccc3O)c(=O)n2C1c1ccc(OC)cc1` (stereo not drawn) [MMV665971], the “percent_inh @ 5 uM” value under setting [2] is on record as 97%. Further, the pEC50 is 6.31 under setting [3], 6.13 under setting [4] and 4.82 under setting [8].
Take `O=C(Cc1ccccc1)NC(c1ccc(Cl)cc1)c1c(O)ccc2ccccc12` (stereo not drawn) [MMV665972]: the pEC50 under setting [1] is 4.82.
Regarding `CCOC(=O)c1cn(CC)c2cc(N(C)CCc3ccc(OC)c(OC)c3)c(F)cc2c1=O` [MMV665977], the “percent_inh @ 5 uM” value under setting [9] is listed as 99%. Moreover, the pEC50 under setting [10] was 6.69, the pEC50 under setting [11] was 6.99 and the pEC50 under setting [4] is 6.37.
For `FC(F)(F)c1cccc(CNC2CCN(CCc3ccccc3)CC2)c1` [MMV665979], the “percent_inh @ 5 uM” value under setting [9] is listed as 96%. Besides, the pEC50 was 6.16 under setting [10] and 6.76 under setting [11].
Consider `OC1CCCCC1C1(NC(=S)Nc2ccccc2)CCCCC1` (stereo not drawn) [MMV665980], for which the “percent_inh @ 5 uM” value under setting [2] was 59%. Under setting [11], the pEC50 was 6.68.
For the compound `CCCCCCc1cc(O)c2c3c(c(=O)oc2c1)CCC(C)C3` (stereo not drawn) [MMV665987], under setting [2], the “percent_inh @ 5 uM” value was 96%. The pEC50 was 6.27 under setting [3] and 6.44 under setting [11].
For `Cc1nc2ccccc2c(O)c1CC=C(Cl)Cl` [MMV665994], the “percent_inh @ 5 uM” value under setting [2] is 89%. Also, the pEC50 reads like this: under setting [3], 6.08; under setting [11], 6.30.
For `CN1c2ccccc2N(C)C1c1ccc2c(c1)OCO2` [MMV666009], the “percent_inh @ 5 uM” value under setting [5] is 60%. The pEC50 under setting [7] is 6.00 and the pEC50 under setting [6] is 5.95.
For the compound `Cc1ccc(OCCCCCCNCCO)c(C)c1` [MMV666020], the “percent_inh @ 5 uM” value under setting [2] was 49%. Also, the pEC50 under setting [11] was 5.71.
